Data as given in patent US20250188078A1, “SMALL MOLECULE INHIBITORS OF THE CRL4 UBIQUITIN LIGASE” (Cornell University, priority 2022, published 2025).

Assays:
[1] = Dynamic light scattering (DLS) solubility assay; assay type: physicochemical; conditions: normalized intensity ratio of 25 μM compound vs DMSO, in PBS
Description: Dynamic light scattering (DLS) (see Table 1, column 3) is a tool for studying the diffusion behavior of macromolecules in solution. To profile compound solubility, DLS assay was developed for measuring aggregation of small molecule compounds. Compound stock solution was prepared in DMSO. Dilution series were made for each compound in DMSO to ensure a final 1× assay concentration range of 200 μM to 0.78 μM. For example, if the final DMSO concentration was 1%, compounds were prepared at 100× concentrations ranging from […] to 78 μM. Dilute compounds in PBS solution to final concentration. Place 60 μl/well in 96 well plates and 3 replicates for each sample. Data were collected using a DynaPro Plate Reader III (WYATT Technologies, Inc., USA). The instrument was adjusted to measure the optimal light scattering intensity according to the manufacturer's instructions. […] The ratio over 2 means (−) insoluble. The ratio below 2 means (+) soluble and around 2 means (+/−).

[2] = tested on: UV-induced CUL4-dependent DDB2 degradation in MEF-F-DDB2 cells; assay: Cell-based assay for inhibition of UV-induced CUL4-dependent DDB2 degradation; parameters: key: (+) means that the normalized DDB2/α-tubulin ratio is higher in the compound treated sample than DMSO treated sample; (−) means that no change happens between compound treated sample with control sample; conditions: DDB2/α-tubulin by Western blot
Description: Cell-based assay for inhibition of UV-induced CUL4-dependent DDB2 degradation by small molecule CUL4 inhibitors (see Table 1, column 5). Briefly, MEF-F-DDB2 cells were seeded in 6-well plates. DMSO or indicated concentrations of compounds were added to MEF-F-DDB2 cells growing in serum-free medium. MEF-F-DDB2 cells were washed once with PBS and subsequently irradiated with a Philips TUV lamp (predominantly 254 nm) at a dose rate of 0.2 W/m^2. DMSO or compounds were added to MEF-F-DDB2 cells, and then cells were harvested. The cells were lysed, and equal amounts of proteins were resolved on SDS-PAGE gel and Flag-DDB2 levels were detected using anti-DDB2 (D4C4) rabbit antibody (Cell signaling, #5416S). α-tubulin (Proteintech, #66031-1-Ig) was used as an internal loading control. (+) means that the normalized DDB2/α-tubulin ratio is higher in the compound treated sample than DMSO treated sample. (−) means that no change happens between compound treated sample with control sample.

[3] = tested on: CUL4A^low T47D breast cancer cells; assay: Cell killing in CUL4-low T47D cells (CellTiter Glo); assay type: cell-based; conditions: Homo sapiens, 192 h; T47D cells, 8 days treatment; read-out: EC50 CUL4-Low Cells (cell killing)
Description: EC50 indicates compound concentration can cause 50% cell killing in CUL4° ^w T47D cells (see Table 1, column 7). CUL4A^low T47D breast cancer cells were seeded in 96 well plate. […] Change fresh medium and compounds every 48 hours. After 8 days treatment, cell viability was examined by using CellTiter Glo kit (Promega #7570) following the manufacturer's guidelines (https://www.promega.com/-/media/files/resources/protocols/technical-bulletins/0/celltiter-glo-luminescent-cell-viability-assay-protocol.pdf?rev=0d95c232094b41daa06d0c110d1d916f&sc_lang=en, hereby incorporated by reference in its entirety for all purposes). EC50 concentration was calculated by Prism 8 XY analysis nonlinear regression (curve fit-Log(inhibitor) vs response). EC50 indicates cell killing potential in CUL4 low T47D cell line and the EC50 difference between CUL4^high and CUL4^low cells indicates the small molecule cause specific cell killing.
CUL4A^high MDA-MB-468, CUL4^low (T47D), and MCF7 breast cancer cells were seeded in 96 well plates separately. […] Replace with fresh medium and compounds every 48 hours. After 8 days treatment, cell viability was examined by CellTiter Glo kit (Promega #7570). First, transfer the appropriate volume (10 ml for Cat. #G7570) of CellTiter-Glo® Buffer into the amber bottle containing CellTiter-Glo® Substrate to reconstitute the lyophilized enzyme/substrate mixture. This forms the CellTiter-Glo® Reagent. Second, add CellTiter-Glo® Reagent in an equal volume (100 μl per well for 96-well plates) to all wells. Mix contents for 2 minutes on an orbital shaker to induce cell lysis. Incubate at room temperature for 15 minutes to stabilize luminescent signal. Then record luminescence. EC50 concentration was calculated by Prism 8 XY analysis nonlinear regression (curve fit-Log(inhibitor) vs response).

[4] = tested on: CUL4A^high MDA-MB-468 breast cancer cells; assay: Cell killing in CUL4-high MDA-MB-468 cells (CellTiter Glo); assay type: cell-based; conditions: Homo sapiens, 192 h; MDA-MB-468 cells, 8 days treatment; read-out: EC50 CUL4-High Cells (cell killing)
Description: EC50 refers to concentration of compound that induces 50% killing of CUL4A^high MDA-MB-468 cells (see Table 1, column 6). CUL4A^high MDA-MB-468 breast cancer cells were seeded in 96 well plates. After 24 hours, cells were treated with DMSO or compounds. Change fresh medium and compounds. After 8 days treatment, cell viability was examined by using CellTiter Glo kit (Promega #7570) following the manufacturer's guidelines (https://www.promega.com/-/media/files/resources/protocols/technicalbulletins/0/celltiter-glo-luminescent-cell-viability-assay protocol.pdf?rev=0d95c232094b41daa06d0c110d1d916f&sc_lang=en, hereby incorporated by reference in its entirety for all purposes). EC50 concentration was calculated by Prism 8 XY analysis nonlinear regression (curve fit-Log(inhibitor) vs response). Lower EC50 indicates high cell killing potential in CUL4^high MDA-MB-468 cells.
CUL4A^high MDA-MB-468, CUL4^low (T47D), and MCF7 breast cancer cells were seeded in 96 well plates separately. Cells were treated with DMSO, or from 0 to 20 μM compound respectively. Replace with fresh medium and compounds every 48 hours. After 8 days treatment, cell viability was examined by CellTiter Glo kit (Promega #7570). First, transfer the appropriate volume (10 ml for Cat. #G7570) of CellTiter-Glo® Buffer into the amber bottle containing CellTiter-Glo® Substrate to reconstitute the lyophilized enzyme/substrate mixture. This forms the CellTiter-Glo® Reagent. Second, add CellTiter-Glo® Reagent in an equal volume (100 μl per well for 96-well plates) to all wells. Mix contents for 2 minutes on an orbital shaker to induce cell lysis. Incubate at room temperature for 15 minutes to stabilize luminescent signal. Then record luminescence. EC50 concentration was calculated by Prism 8 XY analysis nonlinear regression (curve fit-Log(inhibitor) vs response).

[5] = target: CUL4A-DDB1-BPB interaction (Homo sapiens (Human), UniProt Q16531); assay: AlphaLISA in vitro binding assay, CUL4A and DDB1-BPB binding; conditions: inhibition of CUL4A and DDB1-BPB binding
CUL4A-DDB1-BPB interaction, sequence (Q16531 403-706): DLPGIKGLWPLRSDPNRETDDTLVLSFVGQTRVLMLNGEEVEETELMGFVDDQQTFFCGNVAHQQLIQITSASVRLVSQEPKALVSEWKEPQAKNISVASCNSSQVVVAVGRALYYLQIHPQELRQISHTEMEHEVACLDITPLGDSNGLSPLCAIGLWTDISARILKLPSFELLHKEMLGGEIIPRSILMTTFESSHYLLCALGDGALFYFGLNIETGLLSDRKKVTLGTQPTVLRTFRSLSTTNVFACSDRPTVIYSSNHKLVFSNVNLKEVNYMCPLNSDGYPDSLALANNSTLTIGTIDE
Source text: AlphaLISA IC50 (see Table 1, column 4) means the half maximal inhibitory concentration of compound that inhibits CUL4A and DDB1-BPB binding. Our lab established and optimized 384 well-based AlphaLISA in vitro binding assay for testing small molecule inhibitory activity. Small molecule libraries were screened for compounds that disrupt CUL4A-DDB1-BPB interaction using AlphaScreen detection beads (PerkinElmer, #AL112C and #6765300) following the manufacturer's protocol (https://www.perkinelmer.com/PDFs/downloads/GDE-Alphatech.pdf, hereby incorporated by reference in its entirety for all purposes). The 384-well assay plates (Greiner Bio-one, #781075) were read in Synergy Neo2 Hybrid Multi-Mode Reader (BioTek). The IC50 was calculated by Prism 8 XY analysis nonlinear regression (curve fit-Log(inhibitor) vs response).

Row | Solubility (DLS Assay) [1] | IC50 [5] [µM] | AlphaLisa IC50 [5] | SMILES | Degradation Inhibition (inhibition of UV-induced DDB2 degradation) [2] | EC50 [3] [µM] | EC50 [4] [µM]
1 | -(insoluble) | 0.17 |  | CN(c1ccc(-c2nc(C(=O)O)cc3c2[nH]c2ccc(F)c(F)c23)cc1)S(=O)(=O)c1ccccc1 [PA1-1, 1-[4-[benzenesulfonyl(methyl)amino]phenyl]-5,6-difluoro-9H-pyrido[3,4-b]indole-3-carboxylic acid] | − | > 100 | 15.2
2 |  | 8.88 |  | CN(c1ccc(-c2nc(C(=O)O)cc3c2[nH]c2c(F)cccc23)cc1)S(=O)(=O)c1ccccc1 [PA1-4, 8-fluoro-1-(4-(N-methylphenylsulfonamido)phenyl)-9H-pyrido[3,4-b]indole-3-carboxylic acid] | − | 10.9 | 6.9
3 | -(insoluble) | 5.84 |  | O=C(O)c1cc2c([nH]c3cc(F)ccc32)c(-c2ccc(OCc3ccccc3)cc2)n1 [PA1-11, 1-(4-benzyloxyphenyl)-7-fluoro-9H-pyrido[3,4-b]indole-3-carboxylic acid] | − |  | 9.9
4 | -(insoluble) | 0.75 |  | CN(c1ccc(-c2nc(C(=O)O)cc3c2[nH]c2cc(F)ccc23)c(F)c1)S(=O)(=O)c1ccccc1 [PA1-12, 1-[4-[benzenesulfonyl(methyl)amino]-2-fluoro-phenyl]-7-fluoro-9H-pyrido[3,4-b]indole-3-carboxylic acid] | + |  | 7.37
5 | -(insoluble) | 0.45 |  | CN1CCN(S(=O)(=O)N(C)c2ccc(-c3nc(C(=O)O)cc4c3[nH]c3cc(F)ccc34)cc2)CC1 [PA1-13A-3, 1-(4-(N,4-dimethylpiperazine-1-sulfonamido)phenyl)-7-fluoro-9H-pyrido[3,4-b]indole-3-carboxylic acid] | − |  | 7.25
6 |  | 0.75 |  | CN(c1ccc(-c2nc(C(=O)O)cc3c2[nH]c2ccc(F)cc23)cc1)S(=O)(=O)c1ccc(Br)cc1 [PA2-4, 1-[4-[(4-bromophenyl)sulfonyl-methyl-amino]phenyl]-6-fluoro-9H-pyrido[3,4-b]indole-3-carboxylic acid] | + | > 100 | 4.49
7 |  | 2.09 ± 1.26 |  | COC(=O)c1ccc(-c2nc(C(=O)O)cc3c2[nH]c2ccccc23)cc1 [PA20, 1-(4-methoxycarbonylphenyl)-9H-pyrido[3,4-b]indole-3-carboxylic acid] | + | > 100 | 91.3
8 | -(insoluble) | 12.9 ± 7.44 |  | O=[N+]([O-])c1ccc(-c2nc(-c3nn[nH]n3)cc3c2[nH]c2ccccc23)cc1 [PA40, 1-(4-nitrophenyl)-3-(1H-tetrazol-5-yl)-9H-pyrido[3,4-b]indole] |  | 54.7 | 23.5
9 |  |  | Neg | N#Cc1cc2c([nH]c3ccccc32)c(-c2ccc([N+](=O)[O-])cc2)n1 [PA42, 1-(4-nitrophenyl)-9H-pyrido[3,4-b]indole-3-carbonitrile] |  | > 100 | 73.1
10 |  | 1.26 ± 0.45 |  | CS(=O)(=O)Nc1ccc(-c2nc(C(=O)O)cc3c2[nH]c2ccccc23)cc1 [PA48, 1-[4-(methanesulfonamido)phenyl]-9H-pyrido[3,4-b]indole-3-carboxylic acid] | + | > 100 | 84.1
11 |  | 1.31 ± 0.24 |  | CS(=O)(=O)Oc1ccc(-c2nc(C(=O)O)cc3c2[nH]c2ccccc23)cc1 [PA53, 1-(4-methylsulfonyloxyphenyl)-9H-pyrido[3,4-b]indole-3-carboxylic acid] |  | 69.5 | 27.5
12 |  | 11.1 ± 2.71 |  | CS(=O)(=O)NC(=O)c1cc2c([nH]c3ccccc32)c(-c2ccc(S(C)(=O)=O)cc2)n1 [PA55] | − | 53.8 | 30.7
13 | -(insoluble) |  | Neg | COC(=O)c1cc2c([nH]c3ccccc32)c(-c2ccc(S(=O)(=O)Cc3ccccc3)cc2)n1 [PA65, methyl 1-(4-benzylsulfonylphenyl)-9H-pyrido[3,4-b]indole-3-carboxylate] |  | 44.3 | 18.1
14 |  | 1.22 ± 0.35 |  | O=C(O)c1cc2c([nH]c3ccccc32)c(-c2ccc(S(=O)(=O)Cc3ccccc3)cc2)n1 [PA67, 1-(4-benzylsulfonylphenyl)-9H-pyrido[3,4-b]indole-3-carboxylic acid] |  | > 100 | 53.8
15 |  | 1.39 ± 0.43 |  | CN(c1ccc(-c2nc(C(=O)O)cc3c2[nH]c2ccccc23)cc1)S(C)(=O)=O [PA75, 1-[4-[methyl(methylsulfonyl)amino]phenyl]-9H-pyrido[3,4-b]indole-3-carboxylic acid] |  | 64 | 38.7
